According to US10836726B2, “AZO-quaternary pyridinium salts with acid-enhanced antibacterial efficacy, methods of use, methods of synthesis, and uses thereof” (priority 2016, dated 2020):

Legend:
Format in all cases: cell-based
[1] = test system: Escherichia coli (E. coli, K12); assay: Bacterial growth curves (OD600) after exposure in pH buffers
Method: (§1) Azo-QPS-C16 was effective on both […] bacteria. The ability of bacteria to proliferate after exposure to Azo-QPS-C16 was characterized by adding growth medium and measuring the optical density (OD) at 600 nm every 15 minutes in pH 4.1, 5.8, and 7.9 buffer. […] However, exposure at pH 7.9 required a much higher concentration (40 μg/mL) to inhibit cell growth. […] The pH dependence of bactericidal activity of Azo-QPS-C16 in terms of minimum bactericidal concentration (MBC) was evaluated by inoculating cultures onto a Lysogeny Broth (LB) agar plate after treating the cells with a twofold dilution series of Azo-QPS-C16.
(§2) Bacterial strains and growth conditions. […]
(§3) In a 96-well plate, 2 μL of Azo-QPS-C16 at various concentrations in dimethyl sulfoxide (DMSO) were added to 98 μL of bacteria suspension per well for a final concentration ranging from a 2-fold dilution series between 40 to 1.25 μg/mL of Azo-QPS-C16. […] E. coli were cultured at 37° C., and the OD600 of each well was measured by a Tecan Spark microplate reader (Männedorf, Switzerland) every 15 minutes for up to 19 hours, with 30 seconds shaking before each measurement. S. mutans were grown at 37° C. with 5% CO2, and the OD600 of each well was measured periodically using a Molecular Devices (Sunnyvale, Calif.) SpectraMax M5 microplate reader. […]

[2] = test system: Escherichia coli (E. coli, K12); assay: Minimum bactericidal concentration (MBC) determination by agar colony formation; conditions: MBC increased as pH increased
Method: as §1, §2, §3

[3] = test system: Streptococcus mutans (S. mutans, UA159); assay: as above; conditions: more effective in acidic conditions
Excerpt: The inventor observed similar pH-sensitive antibacterial activity of Azo-QPS-C16 towards the Gram-positive, lactic acid producing, cariogenic bacteria S. mutans.
Bacterial strains and growth conditions. Streptococcus mutans (S. mutans, UA159) and Escherichia coli (E. coli, K12) were purchased from ATCC (American Type Culture Collection, Manassas, Va., USA). Todd Hewitt Broth (THB), and Lysogeny Broth (LB) powder and agar were purchased from BD (Becton, Dickinson and Company, Franklin Lakes, N.J., USA). Planktonic cultures were inoculated from 25% (by volume) glycerol frozen stocks stored at −80° C. E. coli cultures were grown in LB at 37° C. in a shaker-incubator. S. mutans cultures were grown in THB at 37° C. with 5% (by volume) CO2 overnight.
as §3

C=C(C)C(=O)Oc1ccc(/N=N/c2cc[n+](CCCCCCCCCCCCCCCC)cc2)cc1.[Br-] [Azo-QPS-C16, (E)-1-hexadecyl-4-((4-(methacryloyloxy)phenyl)diazenyl)-pyridinium bromide]
concentration that fully inhibited E. coli growth up to 19 hours ([1]; exposure at pH 4.1, 45 min treatment, OD 600 nm): 2.5 µg/mL
concentration required to inhibit cell growth ([1]; exposure at pH 7.9, E. coli): 40 µg/mL
difference in MBC between pH 4.1 and pH 7.9 [2]: 16 fold
MBC-based effectiveness in acidic versus mildly basic conditions [3]: 8 fold
